Assay results published in EPA's ToxValDB 9.5 (doi:10.2903/j.efsa.2013.3269).
Values after ≈ are worked out from the molar mass of the structure shown. Values joined by “and” are separate entries in the source; they are usually repeats but may differ in a detail not shown here. Equal values may be shown once.

Key:
Anas platyrhynchos = settings: oral, mortality
Apis mellifera = settings: acute, duration: 48 hours, mortality
Colinus virginianus = settings: acute; oral; diet; mortality
Oncorhynchus mykiss = settings: acute; duration: 96 hours; mortality
Oryctolagus sp. = settings: developmental; development
Tagia sp. = settings: acute; duration: 14 days; mortality
Aphidius rhopalosiphi = assay: LR50; higher = less toxic; settings: acute; duration: 48 hours; mortality
Typhlodromus pyri = assay: LR50; higher = less toxic; settings: acute; duration: 7 days; mortality

SMILES: CCc1cc(C)cc(CC)c1-c1c(OC(=O)C(C)(C)C)n2n(c1=O)CCOCC2 [Pinoxaden]
- LD50 (Anas platyrhynchos; acute, unspecified): > 2250 mg/kg-day
- LC50 (Anas platyrhynchos; short-term, feed): > 1800 mg/kg-day
- LD50 (Apis mellifera; dermal): > 100 µg/piece
- LD50 (Apis mellifera; oral, unspecified): > 200 µg/piece
- LC50 (Colinus virginianus): > 1570 mg/kg-day
- LC50 (Oncorhynchus mykiss): 10.3 µg/mL (≈ 25.7 µM)
- NOAEL (Oryctolagus sp.): 30 mg/kg-day and 10 mg/kg-day
- LD50 (Rattus norvegicus; acute, oral, mortality): > 5000 mg/kg-day
- NOAEL (Rattus norvegicus; chronic, duration: 2 years, histopathology: nonneoplastic): 10 mg/kg-day
- NOAEL (Rattus norvegicus; reproduction developmental, body weight): 250 mg/kg-day
- NOAEL (Rattus norvegicus; reproduction developmental, oral, gavage, no effects): 500 mg/kg-day
- LC50 (Tagia sp.): > 1000 mg/kg
- LR50 (Aphidius rhopalosiphi): 6.22 g/ha
- LR50 (Typhlodromus pyri): 1.81 g/ha
